{
  "source": "paper PMC5608341",
  "about": "“The human VGF-derived bioactive peptide TLQP-21 binds heat shock 71 kDa protein 8 (HSPA8)on the surface of SH-SY5Y cells” (PLoS ONE, 2017)",
  "key": {"[1]": {"test_system": "Heat shock cognate 71 kDa protein (HSPA8/HSC70)", "assay": "Avidin-agarose affinity chromatography of SH-SY5Y cell homogenate with biotin-TLQP-21, SDS-PAGE/SYPRO Ruby and MASCOT MS/MS identification; HSPA8", "format": "binding, human", "conditions": "fractions 4-5, control column without biotin-TLQP-21", "method": "Portions (25 μl) of each elution fraction from avidin-agarose affinity chromatography were boiled in 2x Laemmli buffer and loaded to a 10% SDS-PAGE gel. Electrophoresis was carried out at 200V for 60 minutes. After completion, the gel was washed in dH2O for 10 minutes. […] The gel was then transferred to a clean staining container, and washed for 5 minutes with fixing solution followed by washing for 5 minutes in dH2O.Finally, the gel was imaged in a Molecular Imager Gel Doc system (Bio Rad, Hercules) using the highest sensitivity of the CCD camera (CoolSNAP HQ2, Roper Scientific) at a resolution of 1392 x 1040 pixels with 12 bit gray scale levels per pixel. […] Extracted peptides were analyzed by LC-MS/MS. […] Ionized peptides were detected in a Bruker Amazon ETD ion trap. Automated analysis of mass data was performed by Data Analysis 4.0 and BioTools 3.2 from Bruker Daltonik GmbH. Database search was done with the Mascot v2.3 search tool (Matrix Science) screening SwissProt (release 57.15). Searches were limited to human taxonomy selecting carbamidomethyl cysteine as a fixed modification and oxidized methionine as potential variable modification. […] All spectra and database results were scrutinized manually in details using the above software, especially in the case of identifications based on one peptide hit. […]"}, "[2]": {"test_system": "HSPA8 on the surface of SH-SY5Y cells", "assay": "Crosslinking of biotinylated TLQP-21 to live SH-SY5Y surface membrane proteins, avidin affinity, Western blot", "format": "binding, human", "conditions": "50 μM biotin-TLQP-21, 1 mM Sulfo-EMCS, 1 hour, room temperature; versus control without peptide", "experimental": "After electrophoresis, as described earlier, proteins were transferred onto PVDF membranes (Millipore, Bedford) using semi-dry method (Trans-blot SD semi-dry transfer cell, Biorad). The membranes were then blocked 5% BSA in TBS-T solution (Tris-buffered saline with 0.1% tween 20, pH = 7.6) for 1 hour at room temperature, and probed with anti-HSC70/HSPA8 (Abcam) antibody at 1:500 dilution. Anti-rabbit antibody (Dako) at a 1:2000 dilution was used as the secondary antibody. Subsequently, the membrane was incubated with Luminata Forte Western HRP substrate [Merck Millipore] for 5 minutes and developed using Hypercassette and Amersham hyperfilm (GE Healthcare).\nSH-SY5Y cells were grown as described above until confluence. Culture medium was removed, cells were washed three times with cold PBS and incubated with 2 mL of PBS containing 1 mM Sulfo-EMCS with 50 μM biotin-TLQP-21 for 1 hour at room temperature. Control cells were incubated under the same conditions with the same reaction mixture lacking biotin-TLQP-21. The cross-linking reaction was stopped adding Tris-HCl, pH 7.8 to a final concentration 50 mM. Cells were washed twice with cold PBS and solubilized in lysis buffer (20 mM HEPES pH 7.4, 2 mM EGTA, 1 mM DTT, 1 mM sodium orthovanadate, 1% Triton X-100, 10% glycerol, 2 μM leupeptin, 400 μM PMSF, 50 μM β-glycerophosphate and 100 μg/ml aprotinin). […]"}, "[3]": {"test_system": "HSPA8", "conditions": "pooled fractions 4 and 5, anti-HSPA8 1:500, three replicates, versus control fractions", "experimental": "A monomeric avidin column (Thermo Scientific) was washed with 8 ml PBS followed by addition of 6 ml (2 mM D-biotin in PBS, pH = 7.2) to block any non-reversible biotin binding sites. Regeneration buffer (0.1M glycine, pH 2.8, 12 ml) was added to remove biotin from the reversible binding sites followed by washing with 8 ml of PBS. One ml of 0.1 mM biotin-TLQP-21 was mixed with 900 μl of PBS and 100 μl of 1mM TCEP and the resulting solution was applied to the column, which was incubated for an hour at room temperature. The column was then washed with 12 ml of PBS. A 2ml solution containing 700 μl of SH-SY5Y cell lysate with a protein concentration of 10μg/μl was diluted with 1.3 ml of PBS and applied then to the column. The column was then washed with 12 ml of PBS, and eluted with 10 ml of blocking/elution buffer. Fractions of 500 μl were collected and kept on ice until further use for analysis by SYPRO® Ruby Protein Gel Stain (Lonza), and Western blot. As a control, cell lysate solution was added under the same conditions to a column to which biotin-TLQP-21 was not attached.\nAfter electrophoresis, as described earlier, proteins were transferred onto PVDF membranes (Millipore, Bedford) using semi-dry method (Trans-blot SD semi-dry transfer cell, Biorad). […]"}, "[4]": {"target": "T1, HSPA8 (Homo sapiens, UniProt P11142)", "T1 construct": "HSPA8 immobilization was performed by adding 15 μl of 25 μg/ml of protein in 20 mM sodium acetate buffer", "T1 sequence (P11142 whole entry)": "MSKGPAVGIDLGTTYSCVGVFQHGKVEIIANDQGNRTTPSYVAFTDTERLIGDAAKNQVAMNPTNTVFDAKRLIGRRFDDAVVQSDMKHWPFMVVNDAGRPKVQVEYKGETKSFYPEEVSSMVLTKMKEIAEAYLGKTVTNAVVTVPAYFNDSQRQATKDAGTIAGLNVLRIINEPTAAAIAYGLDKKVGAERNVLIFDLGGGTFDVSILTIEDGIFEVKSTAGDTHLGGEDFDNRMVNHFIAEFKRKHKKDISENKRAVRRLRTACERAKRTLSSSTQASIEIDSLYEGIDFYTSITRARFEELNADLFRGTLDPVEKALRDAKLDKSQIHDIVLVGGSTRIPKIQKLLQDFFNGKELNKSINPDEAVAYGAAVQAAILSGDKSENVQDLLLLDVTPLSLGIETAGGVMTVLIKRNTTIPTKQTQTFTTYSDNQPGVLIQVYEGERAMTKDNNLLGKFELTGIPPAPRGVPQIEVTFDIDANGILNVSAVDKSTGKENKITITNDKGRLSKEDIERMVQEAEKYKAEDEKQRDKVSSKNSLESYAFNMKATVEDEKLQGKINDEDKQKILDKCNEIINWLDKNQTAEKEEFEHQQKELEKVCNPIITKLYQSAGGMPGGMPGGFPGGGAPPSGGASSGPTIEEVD", "conditions": "ref [45]; read-out: affinity of HSPA8 for the phosphorylated peptide P140; cited from earlier work"}, "[5]": {"test_system": "complement component-3a receptor 1 (C3AR1)", "conditions": "ref [27]–[28]; cited from earlier work", "source_text": "(§1) Remarkably, despite the large volume of data on effects of VGF-derived peptides, very little is known about their receptors, downstream signaling routes and mechanisms of action. […] We reasoned that the neuroblastoma cell line SH-SY5Y would be a good model to study receptors and downstream mechanisms of VGF-derived peptides, given the substantial expression and secrete levels of VGF and VGF-derived ..."}, "[6]": {"test_system": "globular head of the complement component C1q receptor (gC1qR)", "conditions": "ref [29]; cited from earlier work", "source_text": "as §1"}},
  "note": "Where no end group is shown, it is not given here. The star is where a group is joined. Biotin = O=C1N[C@H]2[C@H](CS[C@H]2CCCCC(=O)*)N1",
  "data": [
    {"substance": "Biotin-TLQPPSALRRRHYHHALPPSRC [biotin-TLQP-21, amino-terminally biotinylated human TLQP-21 containing an extra cysteine residue at the C-terminus]", "values": [
      {"measurement": "~70 kDa protein bound on biotin-TLQP-21 column (SYPRO Ruby)", "setting": "[1]", "result": "A ~70 kDa protein was bound"},
      {"measurement": "~70 kDa protein bound on biotin-TLQP-21 column (SYPRO Ruby)", "setting": "[1]; listed as biotinyl-TLQP-21", "result": "a protein band of ∼70 kDa was detected by SYPRO Ruby staining"},
      {"measurement": "cross-linking to HSPA8 on live cell surface", "setting": "[2]", "result": "A positive ~70kDa band corresponding to HSPA8 was detected"},
      {"measurement": "Western blot detection of HSPA8 in eluate of biotin-TLQP-21 column", "setting": "[3]", "result": "confirmed the ~70 kDa protein as HSPA8 but not in the controls"}
    ]},
    {"substance": "P140: phosphorylated peptide P140, corresponds to a portion of the spliceosomal U1-70K snRNP protein, recognized by lupus CD4+ T cells (RIHMVYSKRSGKPRGYAFIEY; phospho-Ser140 (10th residue of the peptide); P140/Lupuzor is conventionally U1-70K (SNRNP70) 131-151)", "values": [
      {"measurement": "Kd", "setting": "[4]", "result": "~7", "unit": "µM"}
    ]},
    {"substance": "TLQPPASSRRRHFHHALPPAR [murine TLQP-21, mouse TLQP-21]", "values": [
      {"measurement": "C3AR1 as receptor", "setting": "[5]", "result": "identified as potential receptors"},
      {"measurement": "gC1qR as receptor", "setting": "[6]", "result": "identified as potential receptors"}
    ]}
  ]
}
